Test results: patent US8993544B2, “Carbamoylphosphonates as inhibitors and uses thereof” (priority 2009, dated 2015)
Read-outs that look alike come from different tables or passages of the source.

Experiments:
[1] = molecular target: T1, human MMP-12 (Homo sapiens, UniProt P39900); test: Determination of MMP inhibitory potency, MMP-12; type: biochemical
T1 construct: purchased R&D Systems, Minneapolis
Experimental: (§1) Recombinant enzymes, human MMP-1, MMP-2, MMP-3, MMP-8, MMP-9, MMP-12, MMP-13 and TACE (R&D Systems, Minneapolis) were incubated at four different concentrations with the relevant colorimetric or fluorescent peptide substrates (R&D Systems, Minneapolis) for 3 h. The tested compounds were added at four to six different concentrations and the inhibitory potencies expressed in a colorimetric change, was measured by an ELISA or fluorimeter.

[2] = molecular target: T2, TACE (Homo sapiens, UniProt P78536); test: Determination of inhibitory potency, TACE; type: biochemical
T2 construct: purchased R&D Systems, Minneapolis
T2 sequence (P78536 215-824): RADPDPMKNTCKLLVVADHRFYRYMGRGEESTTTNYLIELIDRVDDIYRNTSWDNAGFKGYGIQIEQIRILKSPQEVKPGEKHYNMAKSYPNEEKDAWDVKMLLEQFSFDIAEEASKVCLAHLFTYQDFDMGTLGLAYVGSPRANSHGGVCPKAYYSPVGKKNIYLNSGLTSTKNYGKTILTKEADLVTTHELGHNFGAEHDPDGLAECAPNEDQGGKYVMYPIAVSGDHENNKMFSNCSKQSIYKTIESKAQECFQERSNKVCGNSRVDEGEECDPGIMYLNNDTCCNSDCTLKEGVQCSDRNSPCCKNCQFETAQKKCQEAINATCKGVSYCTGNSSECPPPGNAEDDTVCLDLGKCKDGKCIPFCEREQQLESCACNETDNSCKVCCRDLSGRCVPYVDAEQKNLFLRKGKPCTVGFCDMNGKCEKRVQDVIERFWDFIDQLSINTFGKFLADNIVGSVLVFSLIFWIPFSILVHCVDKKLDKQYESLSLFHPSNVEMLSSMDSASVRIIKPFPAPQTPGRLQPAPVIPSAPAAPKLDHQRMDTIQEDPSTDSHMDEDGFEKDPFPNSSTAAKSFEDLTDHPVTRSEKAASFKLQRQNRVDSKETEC
Experimental: as §1

[3] = tested on: MMP and/or ADAM enzyme; test: Duration of inhibitory effect on the enzymes inhibited; type: biochemical, human
Experimental: Previously, it has been established that cis-2-aminocyclohexycarbamoyl phosphonic acid (cis-ACCP), listed for the purpose of comparison in Tables 2 and 3 as “control”, was an effective nontoxic, in vivo active antimetastatic compound. […] In the study leading to the subject invention, it was determined that the inhibitory effect could be, and in fact was prolonged by substituting carbamoylphosphonic functionality with aromatic ring functionality as in the compounds of the invention. […]
as §1

[4] = tested on: tumor invasion; test: In vitro model of tumor invasion (Boyden chamber, reconstituted basement membrane); type: cell-based; conditions: read-out: % Invasion-Inhibition by 50 μM drug
Experimental: The compound was also evaluated in an in vivo experimental model of metastasis using B16F10 tumor cells in C57B1 mice. […] The assay was carried out in a Boyden chamber with a reconstituted basement membrane (Matrigal).

[5] = molecular target: T3, human MMP-13 (Homo sapiens, UniProt P45452); test: Determination of MMP inhibitory potency, MMP-13; type: biochemical
T3 construct: purchased R&D Systems, Minneapolis
Experimental: as §1

[6] = molecular target: T4, human MMP-3 (Homo sapiens, UniProt P08254); test: Determination of MMP inhibitory potency, MMP-3; type: biochemical
T4 construct: purchased R&D Systems, Minneapolis
T4 sequence (P08254 100-477): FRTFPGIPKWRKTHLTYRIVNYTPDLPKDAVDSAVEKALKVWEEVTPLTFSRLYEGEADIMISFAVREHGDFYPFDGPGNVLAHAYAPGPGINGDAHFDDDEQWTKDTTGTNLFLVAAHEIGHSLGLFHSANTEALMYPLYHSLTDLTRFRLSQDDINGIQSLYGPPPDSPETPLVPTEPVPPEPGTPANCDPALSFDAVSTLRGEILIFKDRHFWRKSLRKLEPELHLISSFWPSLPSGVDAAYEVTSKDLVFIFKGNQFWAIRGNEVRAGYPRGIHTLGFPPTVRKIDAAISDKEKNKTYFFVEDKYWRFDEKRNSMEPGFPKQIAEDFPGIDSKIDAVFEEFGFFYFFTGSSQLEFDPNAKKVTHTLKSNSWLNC
Experimental: as §1

[7] = molecular target: T5, human MMP-9 (Homo sapiens, UniProt P14780); test: Determination of MMP inhibitory potency, MMP-9; type: biochemical
T5 construct: purchased R&D Systems, Minneapolis
T5 sequence (P14780 94-707): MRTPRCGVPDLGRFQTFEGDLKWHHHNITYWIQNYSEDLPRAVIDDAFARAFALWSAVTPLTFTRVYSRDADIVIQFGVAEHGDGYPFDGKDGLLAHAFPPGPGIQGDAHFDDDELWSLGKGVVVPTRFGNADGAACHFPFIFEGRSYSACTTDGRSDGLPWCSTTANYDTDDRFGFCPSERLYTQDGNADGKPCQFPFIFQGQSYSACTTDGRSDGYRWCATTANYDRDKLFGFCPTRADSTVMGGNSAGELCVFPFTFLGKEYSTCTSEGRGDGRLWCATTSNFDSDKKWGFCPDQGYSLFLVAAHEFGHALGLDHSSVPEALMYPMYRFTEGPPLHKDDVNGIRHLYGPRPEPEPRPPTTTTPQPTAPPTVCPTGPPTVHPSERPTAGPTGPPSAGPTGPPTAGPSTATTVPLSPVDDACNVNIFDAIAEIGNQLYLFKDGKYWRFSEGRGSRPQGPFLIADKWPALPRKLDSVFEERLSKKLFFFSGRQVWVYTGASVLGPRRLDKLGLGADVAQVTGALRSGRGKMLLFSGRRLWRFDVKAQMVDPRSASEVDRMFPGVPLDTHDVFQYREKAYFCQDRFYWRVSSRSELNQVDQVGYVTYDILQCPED
Experimental: as §1

[8] = molecular target: T6, MMP-2 (Homo sapiens, UniProt P08253); test: Determination of MMP inhibitory potency, MMP-2; type: biochemical; parameters: purchased R&D Systems, Minneapolis
T6 sequence (P08253 110-660): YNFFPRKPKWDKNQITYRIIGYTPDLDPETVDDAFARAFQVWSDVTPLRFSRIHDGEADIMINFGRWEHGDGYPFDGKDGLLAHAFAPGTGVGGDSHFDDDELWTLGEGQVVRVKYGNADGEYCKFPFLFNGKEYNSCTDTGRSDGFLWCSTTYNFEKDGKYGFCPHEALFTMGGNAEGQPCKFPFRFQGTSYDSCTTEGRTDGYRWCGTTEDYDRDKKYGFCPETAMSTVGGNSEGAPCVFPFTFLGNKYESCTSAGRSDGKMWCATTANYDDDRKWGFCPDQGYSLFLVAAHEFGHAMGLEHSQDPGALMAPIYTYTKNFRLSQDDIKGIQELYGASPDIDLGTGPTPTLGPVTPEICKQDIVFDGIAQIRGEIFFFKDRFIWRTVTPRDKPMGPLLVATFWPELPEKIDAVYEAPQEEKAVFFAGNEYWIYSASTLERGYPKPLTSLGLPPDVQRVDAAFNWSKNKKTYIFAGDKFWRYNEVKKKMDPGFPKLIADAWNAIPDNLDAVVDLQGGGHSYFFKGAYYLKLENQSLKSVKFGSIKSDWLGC
Experimental: as §1

[9] = molecular target: T7, human MMP-8 (Homo sapiens, UniProt P22894); test: Determination of MMP inhibitory potency, MMP-8; type: biochemical
T7 construct: purchased R&D Systems, Minneapolis
T7 sequence (P22894 101-467): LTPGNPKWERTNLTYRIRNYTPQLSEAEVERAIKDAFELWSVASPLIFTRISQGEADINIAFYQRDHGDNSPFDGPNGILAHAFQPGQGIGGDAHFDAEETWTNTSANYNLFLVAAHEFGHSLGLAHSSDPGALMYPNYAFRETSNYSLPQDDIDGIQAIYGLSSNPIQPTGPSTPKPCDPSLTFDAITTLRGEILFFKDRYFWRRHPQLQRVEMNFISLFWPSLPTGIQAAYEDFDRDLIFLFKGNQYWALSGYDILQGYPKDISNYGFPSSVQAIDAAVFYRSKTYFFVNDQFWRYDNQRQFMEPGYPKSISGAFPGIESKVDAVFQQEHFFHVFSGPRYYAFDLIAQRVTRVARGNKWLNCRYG
Experimental: as §1

[10] = tested on: B16F10 tumor cells; test: Murine melanoma model of experimental metastasis; type: in vivo, C57B1 mice; conditions: for % reduction in lung metastases relative to control: daily for three weeks, B16F10 cells i.v.
Experimental: Experimental metastasis was studied in the murine melanoma model. In this model, B16F10 tumor cells (50 k) were injected into the tail vein of C57B1 6 week old female mice. After 21 days, the metastases formed on the lungs of the mice were counted after appropriate fixation. […] One group received the inhibitor intraperitoneally and the other group orally, dissolved in PBS. Mice were monitored for toxic symptoms at alternate days.

[11] = molecular target: T6, MMP-2; test: Time dependent inhibition of MMP-2 (period of inhibition); type: biochemical; conditions: MMP-2
[12] = mouse, in vivo
Experimental: The initial dose was set to 50 mg/kg as in the previous studies.
One group received the inhibitor intraperitoneally and the other group orally, dissolved in PBS. Mice were monitored for toxic symptoms at alternate days.

T1 sequence (P39900 106-470): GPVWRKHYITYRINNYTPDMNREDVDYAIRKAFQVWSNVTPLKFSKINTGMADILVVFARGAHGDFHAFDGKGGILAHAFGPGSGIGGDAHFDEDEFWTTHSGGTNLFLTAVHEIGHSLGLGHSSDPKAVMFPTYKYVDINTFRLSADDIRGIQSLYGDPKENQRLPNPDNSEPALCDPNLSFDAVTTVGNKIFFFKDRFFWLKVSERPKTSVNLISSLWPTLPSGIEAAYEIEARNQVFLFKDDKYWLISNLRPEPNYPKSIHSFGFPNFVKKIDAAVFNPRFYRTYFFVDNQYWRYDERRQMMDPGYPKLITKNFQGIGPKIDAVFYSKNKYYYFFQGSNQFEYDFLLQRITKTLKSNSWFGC

Compound | IC50 ([1]; read-out: IC50 (μM) on MMP-12) | IC50 ([2]; read-out: IC50 (μM) on TACE) | Duration of inhibitory effect [3] | inhibition at 50 µM [4] | IC50 ([5]; read-out: IC50 (μM) on MMP-13) | IC50 ([6]; read-out: IC50 (μM) on MMP-3) | IC50 ([7]; read-out: IC50 (μM) on MMP-9) | IC50 ([8]; read-out: IC50 (μM) on MMP-2) | IC50 ([9]; read-out: IC50 (μM) on MMP-8) | also measured
O=C(NCCCCNS(=O)(=O)c1ccc(Oc2ccccc2)cc1)P(=O)(O)O [Compound 3, 1-[4-phenoxybenzenesulfonamido]-4-[phosphonoformamido]butane] | > 100 µM | > 100 µM | >180 min | 60% | 25 µM | > 100 µM | > 100 µM | 7 µM | > 100 µM | melting point: 143 to 145 °C
O=C(NCCCNS(=O)(=O)c1ccc(Oc2ccccc2)cc1)P(=O)(O)O [Compound 2, 1-[4-phenoxybenzenesulfonamido]-3-[phosphonoformamido]propane] | > 100 µM | > 100 µM | >180 min | 49% | 25 µM | 35 µM | > 100 µM | 10 µM | > 100 µM | melting point: 165 to 168 °C
N[C@H](CNC(=O)P(=O)(O)O)CNS(=O)(=O)c1ccc(Oc2ccccc2)cc1 [Compound 8R, (R)-N-[2-amino-3-(4-phenoxybenzenesulfonamido)propyl]carbamoylphosphonic acid] | 12 µM | > 100 µM | >180 min | > 100% | > 100 µM | > 100 µM | > 100 µM | 20 µM | 15 µM | 
O=C(NCCNCCNS(=O)(=O)c1ccc(Oc2ccccc2)cc1)P(=O)(O)O [Compound 10, N-{2-[2-(4-Phenoxybenzenesulfonylamino)-ethylamino]-ethyl}-carbamoylphosphonic acid] |  | > 100 µM | >180 min |  |  | > 100 µM | > 100 µM | 20 µM | > 100 µM | melting point: 224 to 225 °C
O=C(NCCCCCCCNS(=O)(=O)c1ccc(Oc2ccccc2)cc1)P(=O)(O)O [Compound 6] | > 100 µM | 22 µM | >180 min |  | > 100 µM | > 100 µM | > 100 µM | > 100 µM | > 100 µM | 
O=C(NCCCCCNS(=O)(=O)c1ccc(Oc2ccccc2)cc1)P(=O)(O)O [Compound 4] | 80 µM | > 100 µM |  | 62% | 60 µM | > 100 µM | > 100 µM | 5 µM | > 100 µM | inhibition of metastasis formation ([10]; 50 mg/kg): > 80%; % reduction in lung metastases relative to control ([10]; Intraperitoneal, 25 mg/kg): 76%; % reduction in lung metastases relative to control ([10]; Intraperitoneal, 50 mg/kg): 90%; % reduction in lung metastases relative to control ([10]; Per-oral, 50 mg/kg): 80%; % reduction in lung metastases relative to control ([10]; Per-oral, 150 mg/kg): 86%
NC(CNC(=O)P(=O)(O)O)CNS(=O)(=O)c1ccc(Oc2ccccc2)cc1 (racemic) [Compound 8, 2-amino-1-(4-phenoxybenzenesulfonamido)-3-[phosphonoformamido]propane] | 15 µM | 12 µM | >180 min |  | > 100 µM | > 100 µM | 12 µM | 15 µM | 12 µM | duration of affinity to all the enzymes inhibited [3]: > 3 h
O=C(NCCCCCCCCNS(=O)(=O)c1ccc(Oc2ccccc2)cc1)P(=O)(O)O [Compound 7] | > 100 µM | 17 µM | >180 min |  | > 100 µM | > 100 µM | > 100 µM | > 100 µM | > 100 µM | 
N[C@@H](CNC(=O)P(=O)(O)O)CNS(=O)(=O)c1ccc(Oc2ccccc2)cc1 [Compound 8S, (S)-N-[2-amino-3-(4-phenoxybenzenesulfonamido)propyl]carbamoylphosphonic acid] | > 100 µM | > 100 µM | >180 min | > 100% | > 100 µM |  | > 100 µM | 15 µM | > 100 µM | 
N[C@H]1CCCC[C@H]1NC(=O)P(=O)(O)O (relative stereo) [YK-162, cis-2-aminocyclohexylcarbamoyl phosphonic acid, reference compound] |  |  | <30 min | 15% |  |  |  |  |  | IC50 [1]: > 100 µM; IC50 [2]: > 100 µM; IC50 [5]: > 100 µM; IC50 [6]: > 100 µM; period of MMP-2 inhibition [11]: about 30 minutes; IC50 [7]: 20 µM; IC50 [8]: 4 µM; IC50 [9]: > 100 µM
O=C(NCCCCCCNS(=O)(=O)c1ccc(Oc2ccccc2)cc1)P(=O)(O)O [Compound 5, 1-[4-Phenoxybenzenesulfonamido]-6-[phosphonoformamido]hexane] | > 100 µM | 20 µM |  | 77% | 80 µM | > 100 µM | > 100 µM | 5 µM | > 100 µM | toxic effects in mice [12]: without any toxic effects; toxicity in mice (text, FIG. 5) [12]: toxic; Toxicity in mice (Table 4) ([12]; ip, 50 mg/kg): Toxic; % reduction in lung metastases relative to control ([10]; Intraperitoneal, 25 mg/kg): 90%; % reduction in lung metastases relative to control ([10]; Per-oral, 50 mg/kg): 50%; % reduction in lung metastases relative to control ([10]; Per-oral, 150 mg/kg): 86%
